The values that follow come from patent US7846941B2, “Compounds modulating c-kit and c-fms activity and uses therefor” (Plexxikon, Inc., priority 2005, dated 2010).

Test [1] has as its target c-kit (Homo sapiens, UniProt P10721). Put plainly: c-kit assays of Examples 40 and 41 (AlphaScreen and 33P kinase assays, M-07e proliferation and phosphorylation).
Procedure: The M-07e proliferation is stimulated by SCF (Stem Cell Factor), which binds and activates c-Kit tyrosine kinase receptor. Inhibitors of c-Kit kinase reduce or eliminate the SCF mediated kinase activation, resulting in reduced cell proliferation of SCF stimulated cells. This inhibition is measured by the effect of compound concentration on cell growth to assess IC50 values.
This cell based assay was also used to assess phosphorylation. Samples were prepared with compounds as described for the growth inhibition assay only M-07e cells were seeded at 2×10^5 cells per well in a 96 well filter plate. Cells were incubated for 1 hour at 37° C. with the compounds as described above, and then stimulated by adding SCF to a final concentration of 50 ng/ml and incubated for 10 minutes at 37° C. […] Detection antibody (100 μl) was added to the plate and samples incubated for 1 hour at room temperature, then washed 4 times with wash buffer. HRP anti-rabbit antibody (100 μl) was added and samples incubated for 30 minutes at room temperature, then washed 4 times with wash buffer. Stabilized chromogen (100 μl) was added and samples incubated for 15-25 minutes at room temperature, then washed 4 times with wash buffer. Stop solution (100 μl) was added and the samples read on a Wallac Victor reader at 450 nm. The absorbance was plotted against the compound concentration and the IC50 concentration was determined.
Compounds to be tested were dissolved in DMSO to a concentration of 20 mM. These were diluted 30 μl into 120 μl of DMSO (4 mM) and 1 μl was added to an assay plate. These were then serially diluted 1:3 (50 μl to 100 μl DMSO) for a total of 8 points. Plates were prepared such that each kinase reaction is 20 μl in 1× kinase buffer (50 mM HEPES, pH 7.2, 5 mM MgCl2, 5 mM MnCl2, 0.01% NP-40, 0.2% BSA), 5% DMSO and 10 μM ATP. Substrate was 100 nM biotin-(E4Y)3 (Open Source Biotech, Inc.). C-kit kinase was at 0.1 ng per sample. After incubation of the kinase reaction for 1 hour at room temperature, 5 μl of donor beads (Streptavidin coated beads (Perkin Elmer Life Science) final concentration 1 μg/ml) in stop buffer (50 mM EDTA in 1× kinase buffer) was added, the sample was mixed and incubated for 20 minutes at room temperature before adding 5 μl of acceptor beads (PY20 coated beads (Perkin Elmer Life Science) final concentration 1 μg/ml) in stop buffer. The samples were incubated for 60 minutes at room temperature and the signal per well was read on AlphaQuest reader.
The test system of test [2] is cells with activating c-kit mutations. As to conditions: mutations in the catalytic region of c-kit; cited from earlier work.

c-kit, sequence (P10721 with tags, fused parts or gaps): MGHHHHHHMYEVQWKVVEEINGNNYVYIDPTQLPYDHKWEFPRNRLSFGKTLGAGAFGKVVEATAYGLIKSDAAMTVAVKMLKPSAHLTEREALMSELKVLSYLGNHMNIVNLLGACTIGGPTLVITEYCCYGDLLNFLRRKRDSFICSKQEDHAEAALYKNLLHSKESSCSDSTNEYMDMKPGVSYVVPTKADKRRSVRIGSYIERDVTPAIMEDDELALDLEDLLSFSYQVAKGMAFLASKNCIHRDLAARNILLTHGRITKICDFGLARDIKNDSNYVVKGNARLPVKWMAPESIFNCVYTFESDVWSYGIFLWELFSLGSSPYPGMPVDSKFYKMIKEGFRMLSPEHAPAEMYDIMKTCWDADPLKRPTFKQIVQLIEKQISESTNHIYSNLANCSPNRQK

As to `FC(F)(F)c1ccc(CNc2ccc(Cc3c[nH]c4ncccc34)cn2)cc1` [Compound P-0003, [5-(1H-Pyrrolo[2,3-b]pyridin-3-ylmethyl)-pyridin-2-yl]-(4-trifluoromethyl-benzyl)-amine], the IC50 (commonly the concentration that inhibits the measured activity by half) in test [1] was under 1000 nM.
Regarding `Clc1ccc(CNc2ccc(Cc3c[nH]c4nccc(Cl)c34)cn2)cc1` [Compound P-0009, [5-(4-chloro-1H-pyrrolo[2,3-b]pyridin-3-ylmethyl)-pyridin-2-yl]-(4-chloro-benzyl)-amine], the IC50 in test [1] is under 1000 nM.
On the same count and under the same terms, with `COc1nc(NCc2ccc(C(F)(F)F)cc2)ccc1Cc1c[nH]c2ncccc12` [Compound P-0012, [6-Methoxy-5-(1H-pyrrolo[2,3-b]pyridin-3-ylmethyl)-pyridin-2-yl]-(4-trifluoromethyl-benzyl)-amine] the figure was under 1000 nM; with `O=C(c1ccc(NCc2cccc(F)c2)nc1)c1c[nH]c2ncccc12` [Compound P-0016, [6-(3-Fluoro-benzylamino)-pyridin-3-yl]-(1H-pyrrolo[2,3-b]pyridin-3-yl)-methanone], under 1000 nM; with `CC(C)(C)Oc1ccc(Cc2c[nH]c3ncccc23)cn1` [Compound P-0020, 3-(6-tert-Butoxy-pyridin-3-ylmethyl)-1H-pyrrolo[2,3-b]pyridine], under 1000 nM.
On to `CC(C)Nc1ccc(C(=O)c2c[nH]c3ncccc23)cn1` [Compound P-0024, (6-Isopropylamino-pyridin-3-yl)-(1H-pyrrolo[2,3-b]pyridin-3-yl)-methanone], for which the IC50 in test [1] is under 1000 nM.
On the same count and under the same terms, the figure for `CC(C)CNc1ccc(C(=O)c2c[nH]c3ncccc23)cn1` [Compound P-0025, (6-Isobutylamino-pyridin-3-yl)-(1H-pyrrolo[2,3-b]pyridin-3-yl)-methanone] is under 1000 nM.
The same measure, in the same setting: with `O=C(c1ccc(Nc2cccc(OCc3ccccc3)c2)nc1)c1c[nH]c2ncccc12` [Compound P-0026, [6-(3-Benzyloxy-phenylamino)-pyridin-3-yl]-(1H-pyrrolo[2,3-b]pyridin-3-yl)-methanone] the figure was under 1000 nM.
On the same count and under the same terms, with `CC(C)CNc1ccc(Cc2c[nH]c3ncccc23)cn1` [Compound P-0028, Isobutyl-[5-(1H-pyrrolo[2,3-b]pyridin-3-ylmethyl)-pyridin-2-yl]-amine] the figure was under 1000 nM; with `O=C(c1ccc(NCC2CC2)nc1)c1c[nH]c2ncccc12` [Compound P-0030, [6-(Cyclopropylmethyl-amino)-pyridin-3-yl]-(1H-pyrrolo[2,3-b]pyridin-3-yl)-methanone], under 1000 nM.
Molecule `O=C(c1ccc(NCC2CCCCC2)nc1)c1c[nH]c2ncccc12` [Compound P-0031, [6-(Cyclohexylmethyl-amino)-pyridin-3-yl]-(1H-pyrrolo[2,3-b]pyridin-3-yl)-methanone] displayed an IC50 in test [1] of under 1000 nM.
Same read-out and setting: with `c1cnc2[nH]cc(Cc3ccc(NCC4CC4)nc3)c2c1` [Compound P-0032, Cyclopropylmethyl-[5-(1H-pyrrolo[2,3-b]pyridin-3-ylmethyl)-pyridin-2-yl]-amine] the figure was under 1000 nM; with `c1cnc2[nH]cc(Cc3ccc(NCC4CCCCC4)nc3)c2c1` [Compound P-0033, Cyclohexylmethyl-[5-(1H-pyrrolo[2,3-b]pyridin-3-ylmethyl)-pyridin-2-yl]-amine], under 1000 nM.
For `COc1cnc2[nH]cc(Cc3ccc(NCc4ccc(C(F)(F)F)cc4)nc3)c2c1` [Compound P-0053, [5-(5-Methoxy-1H-pyrrolo[2,3-b]pyridin-3-ylmethyl)-pyridin-2-yl]-(4-trifluoromethyl-benzyl)-amine], the IC50 in test [1] was under 1000 nM.
For `FC(F)(F)c1ccc(CNc2ccc(Cc3c[nH]c4ncc(Cl)cc34)cn2)cc1` [Compound P-0054, [5-(5-Chloro-1H-pyrrolo[2,3-b]pyridin-3-ylmethyl)-pyridin-2-yl]-(4-trifluoromethyl-benzyl)-amine], the IC50 in test [1] is under 1000 nM.
Still for that read-out and setting: the figure for `Clc1cccc(COc2ccc(Cc3c[nH]c4ncccc34)cn2)c1` [Compound P-0055, 3-[6-(3-Chloro-benzyloxy)-pyridin-3-ylmethyl]-1H-pyrrolo[2,3-b]pyridine] is under 1000 nM; for `Clc1ccc(COc2ccc(Cc3c[nH]c4ncccc34)cn2)cc1` [Compound P-0056, 3-[6-(4-Chloro-benzyloxy)-pyridin-3-ylmethyl]-1H-pyrrolo[2,3-b]pyridine] it is under 1000 nM; for `FC(F)(F)c1cccc(COc2ccc(Cc3c[nH]c4ncccc34)cn2)c1` [Compound P-0057, 3-[6-(3-Trifluoromethyl-benzyloxy)-pyridin-3-ylmethyl]-1H-pyrrolo[2,3-b]pyridine] it is under 1000 nM.
In test [1], `COc1cnc2[nH]cc(Cc3ccc(NCc4ccc(Cl)cc4)nc3)c2c1` [Compound P-0058, (4-Chloro-benzyl)-[5-(5-methoxy-1H-pyrrolo[2,3-b]pyridin-3-ylmethyl)-pyridin-2-yl]-amine] came in with a 50% inhibitory concentration (IC50) of under 1000 nM.
`Clc1ccc(CNc2ccc(Cc3c[nH]c4ncc(Cl)cc34)cn2)cc1` [Compound P-0059, (4-Chloro-benzyl)-[5-(5-chloro-1H-pyrrolo[2,3-b]pyridin-3-ylmethyl)-pyridin-2-yl]-amine] had a half-inhibitory concentration (IC50) in test [1] of under 1000 nM.
The molecule `CCN(CC)CCOc1cnc2[nH]cc(Cc3ccc(NCc4ccc(C(F)(F)F)cc4)nc3)c2c1` [Compound P-0060, {5-[5-(2-Diethylamino-ethoxy)-1H-pyrrolo[2,3-b]pyridin-3-ylmethyl]-pyridin-2-yl}-(4-trifluoromethyl-benzyl)-amine] had a half-inhibitory concentration (IC50) in test [1] of under 1000 nM.
For the molecule `Oc1cnc2[nH]cc(Cc3ccc(NCc4ccc(C(F)(F)F)cc4)nc3)c2c1` [Compound P-0061, 3-[6-(4-Trifluoromethyl-benzylamino)-pyridin-3-ylmethyl]-1H-pyrrolo[2,3-b]pyridin-5-ol], the IC50 in test [1] was under 1000 nM.
In the case of `Oc1cnc2[nH]cc(Cc3ccc(NCc4ccc(Cl)cc4)nc3)c2c1` [Compound P-0062, 3-[6-(4-Chloro-benzylamino)-pyridin-3-ylmethyl]-1H-pyrrolo[2,3-b]pyridin-5-ol], the IC50 in test [1] was under 1000 nM.
The molecule `Clc1ccc(CNc2ccc(Cc3c[nH]c4ncc(OCCN5CCOCC5)cc34)cn2)cc1` [Compound P-0063, (4-Chloro-benzyl)-{5-[5-(2-morpholin-4-yl-ethoxy)-1H-pyrrolo[2,3-b]pyridin-3-ylmethyl]-pyridin-2-yl}-amine] returned a half-maximal inhibitory concentration (IC50) in test [1] of under 1000 nM.
On the same count and under the same terms, with `FC(F)(F)c1ccc(CNc2ccc(Cc3c[nH]c4ncc(OCCN5CCCC5)cc34)cn2)cc1` [Compound P-0064, {5-[5-(2-Pyrrolidin-1-yl-ethoxy)-1H-pyrrolo[2,3-b]pyridin-3-ylmethyl]-pyridin-2-yl}-(4-trifluoromethyl-benzyl)-amine] the figure was under 1000 nM; with `FC(F)(F)c1ccc(CNc2ccc(Cc3c[nH]c4ncc(OCCN5CCOCC5)cc34)cn2)cc1` [Compound P-0065, {5-[5-(2-Morpholin-4-yl-ethoxy)-1H-pyrrolo[2,3-b]pyridin-3-ylmethyl]-pyridin-2-yl}-(4-trifluoromethyl-benzyl)-amine], under 1000 nM; with `CCN(CC)CCCOc1cnc2[nH]cc(Cc3ccc(NCc4ccc(C(F)(F)F)cc4)nc3)c2c1` [Compound P-0066, {5-[5-(3-Diethylamino-propoxy)-1H-pyrrolo[2,3-b]pyridin-3-ylmethyl]-pyridin-2-yl}-(4-trifluoromethyl-benzyl)-amine], under 1000 nM.
On the same count and under the same terms, with `CCN(CC)CCCOc1cnc2[nH]cc(Cc3ccc(NCc4ccc(Cl)cc4)nc3)c2c1` [Compound P-0069, (4-Chloro-benzyl)-{5-[5-(3-diethylamino-propoxy)-1H-pyrrolo[2,3-b]pyridin-3-ylmethyl]-pyridin-2-yl}-amine] the figure was under 1000 nM; with `O=S(=O)(Nc1ccc(Cc2c[nH]c3ncccc23)cn1)c1ccc(C(F)(F)F)cc1` [Compound P-0071, N-[5-(1H-Pyrrolo[2,3-b]pyridin-3-ylmethyl)-pyridin-2-yl]-4-trifluoromethyl-benzenesulfonamide], under 1000 nM; with `O=C(Nc1ccc(Cc2c[nH]c3ncccc23)cn1)c1ccc(C(F)(F)F)cc1` [Compound P-0072, N-[5-(1H-Pyrrolo[2,3-b]pyridin-3-ylmethyl)-pyridin-2-yl]-4-trifluoromethyl-benzamide], under 1000 nM.
Still for that read-out and setting: the figure for `O=C(Nc1ccc(Cc2c[nH]c3ncccc23)cn1)c1ccc(F)cc1` [Compound P-0073, 4-Fluoro-N-[5-(1H-pyrrolo[2,3-b]pyridin-3-ylmethyl)-pyridin-2-yl]-benzamide] is under 1000 nM; for `O=C(Nc1ccc(Cc2c[nH]c3ncccc23)cn1)c1ccc(Cl)cc1` [Compound P-0074, 4-Chloro-N-[5-(1H-pyrrolo[2,3-b]pyridin-3-ylmethyl)-pyridin-2-yl]-benzamide] it is under 1000 nM; for `C[C@H](Nc1ccc(Cc2c[nH]c3ncccc23)cn1)c1ccc(Cl)cc1` [Compound P-0075, [(S)-1-(4-Chloro-phenyl)-ethyl]-[5-(1H-pyrrolo[2,3-b]pyridin-3-ylmethyl)-pyridin-2-yl]-amine] it is under 1000 nM.
`Clc1ccc(NCc2ccc(Cc3c[nH]c4ncccc34)cn2)cc1` [Compound P-0078, (4-Chloro-phenyl)-[5-(1H-pyrrolo[2,3-b]pyridin-3-ylmethyl)-pyridin-2-ylmethyl]-amine]: the IC50 in test [1] was under 1000 nM.
On the same count and under the same terms, with `Fc1nc(NCc2ccc(Cl)cc2)ccc1Cc1c[nH]c2ncccc12` [Compound P-0082, (4-Chloro-benzyl)-[6-fluoro-5-(1H-pyrrolo[2,3-b]pyridin-3-ylmethyl)-pyridin-2-yl]-amine] the figure was under 1000 nM.
For the molecule `Cc1ccc(NC(=O)c2ccc(CN3CCN(C)CC3)cc2)cc1Nc1nccc(-c2cccnc2)n1` [STI571], the “inhibition of cells with c-kit mutations” value in test [2] is “did not inhibit”.
